The values that follow come from patent USRE38551E1, “Anticonvulsant enantiomeric amino acid derivatives” (priority 1996, dated 2004).

Data set [1] in a line: rotorod neurologic toxicity test, mice (ip). To be noted: male, Carthworth Farms No. 1, in vivo, ip; mouse, i.p., rotorod test at peak effect (Table 6); read-out: MOUSE ED50 Neurotox. The format is in vivo. An excerpt:
(§1) Compounds were screened for anticonvulsant activity in both male albino Carthworth Farms No. 1 mice (ip route) and male albino Sprague Dawley rats [oral (po) route]. Activity was established using the electrical (maximal electroshock or MES) test. In the MES test, a drop of electrolyte solution with anesthetic (0.5% butacaine hemisulfate in 0.9% sodium chloride) was used in the eyes of the animals prior to positioning the corneal electrodes and delivery of current. […] Protection endpoints were defined as the abolition of the hind limb tonic extensor component of the induced seizure. In mice, effects of compounds on forced spontaneous motor activity were determined using the rotorod test. […] Normally under these conditions, mice maintain their balance almost indefinitely. In rats, motor impairment is assessed by observing for overt evidence of ataxia, abnormal gait and stance, and/or loss of placing response and muscle tone. In the mouse identification screening study all compounds were given at three dose levels (30, 100, 300 mg/kg) and two time periods (0.5 hours, 4 hours). Typically, in the MES seizures test one animal was tested at 30 mg/kg and 300 mg/kg, and three animals at 100 mg/kg. In the rotored toxicity test four animals were tested at 30 mg/kg, and 300 mg/kg, and eight animals at 100 mg/kg.
(§2) The quantitative determination of the median effective (ED50) and toxic doses (TD50) was conducted at previously calculated times of peak effect. Groups of at least eight animals were tested using different doses of test compound until at least two points wee determined between 100 and 0% protection and minimal motor impairment. The dose of candidate substance required to produce the defined end-point in 50% of the animals in each test and the 95% confidence interval was calculated.
On the technique in general: Falling from the rotarod earlier than controls is read as motor impairment.

The test system of data set [2] is motor impairment (rotorod test). The experiment in a line: rotorod neurologic toxicity test, mice (ip). The format is in vivo. The settings on record: mice, ip, rotorod test, at time of peak effect.
Source text: as §1, §2

What is called ED50 is the dose at which the effect has come halfway, by size or by number of responders.

Regarding `CC(=O)NC(C)C(=O)NCc1ccccc1` (racemic) [compound 1, N-Acetyl-D,L-alanine-N′-benzylamide], the ED50 in data set [1] is 454 mg/kg. For the same molecule, the “tox, TD50” value in data set [2] is 454 [0.5] mg/kg.
